Measured values reported in ChEMBL document CHEMBL1140940, “Pyrido[2,3-d]pyrimidin-5-ones: a novel class of antiinflammatory macrophage colony-stimulating factor-1 receptor inhibitors” (J Med Chem, 2009).
Active and inactive are the calls of the source. The calls are words filed in the database; no cut-off is given here.

Key:
[1] = Oral bioavailability in mouse at 10 mg/kg; type: ADME, organism-based; settings: in vivo
[2] = tested on: Rattus norvegicus; assay: Inhibition of ankle swelling in Freund's complete adjuvant-induced Lewis rat arthritis model at 10 mg/kg, po twice daily administered on day 8 post adjuvant challenge measured on day 21 post adjuvant challenge relative to control; type: functional
[3] = Cmax in Sprague-Dawley rat at 10 mg/kg, po; type: ADME, organism-based; design: dose 10 mg/kg, route oral; settings: in vivo
[4] = Metabolic stability in dog liver microsomes after 10 mins; type: ADME, Canis lupus familiaris, Microsome; settings: read-out: Stability
[5] = tested on: Rattus norvegicus; assay: Reversal of ankle swelling in streptococcal cell wall-induced Lewis rat chronic arthritis model at 1 mg/kg, po twice daily administered on day 19 post streptococcal cell wall challenge; type: functional, organism-based; design: dose 1 mg/kg
[6] = tested on: Rattus norvegicus; assay: Antiinflammatory effect in Freund's complete adjuvant-induced Lewis rat arthritis model assessed as prevention of bone erosion at 3 mg/kg, po twice daily administered on day 8 post adjuvant challenge measured on day 21 post adjuvant challenge relative to control; type: functional, organism-based; design: dose 3 mg/kg
[7] = Cmax in dog at 10 mg/kg, po; type: ADME, organism-based, Canis lupus familiaris; design: dose 10 mg/kg, route oral; settings: in vivo
[8] = Oral bioavailability in monkey at 10 mg/kg; type: ADME, organism-based, Macaca mulatta; settings: rhesus monkey, in vivo
[9] = Plasma concentration in Freund's complete adjuvant-induced Lewis rat arthritis model at 1 mg/kg, po twice daily administered on day 8 post adjuvant challenge measured 7 days after last dose; type: ADME, organism-based; design: dose 1 mg/kg, route oral
[10] = target: T1, Receptor-type tyrosine-protein kinase FLT3 (Homo sapiens, UniProt P36888); assay: Inhibition of FLT3 by fluorescence polarization competition immunoassay
T1 sequence (P36888 whole entry): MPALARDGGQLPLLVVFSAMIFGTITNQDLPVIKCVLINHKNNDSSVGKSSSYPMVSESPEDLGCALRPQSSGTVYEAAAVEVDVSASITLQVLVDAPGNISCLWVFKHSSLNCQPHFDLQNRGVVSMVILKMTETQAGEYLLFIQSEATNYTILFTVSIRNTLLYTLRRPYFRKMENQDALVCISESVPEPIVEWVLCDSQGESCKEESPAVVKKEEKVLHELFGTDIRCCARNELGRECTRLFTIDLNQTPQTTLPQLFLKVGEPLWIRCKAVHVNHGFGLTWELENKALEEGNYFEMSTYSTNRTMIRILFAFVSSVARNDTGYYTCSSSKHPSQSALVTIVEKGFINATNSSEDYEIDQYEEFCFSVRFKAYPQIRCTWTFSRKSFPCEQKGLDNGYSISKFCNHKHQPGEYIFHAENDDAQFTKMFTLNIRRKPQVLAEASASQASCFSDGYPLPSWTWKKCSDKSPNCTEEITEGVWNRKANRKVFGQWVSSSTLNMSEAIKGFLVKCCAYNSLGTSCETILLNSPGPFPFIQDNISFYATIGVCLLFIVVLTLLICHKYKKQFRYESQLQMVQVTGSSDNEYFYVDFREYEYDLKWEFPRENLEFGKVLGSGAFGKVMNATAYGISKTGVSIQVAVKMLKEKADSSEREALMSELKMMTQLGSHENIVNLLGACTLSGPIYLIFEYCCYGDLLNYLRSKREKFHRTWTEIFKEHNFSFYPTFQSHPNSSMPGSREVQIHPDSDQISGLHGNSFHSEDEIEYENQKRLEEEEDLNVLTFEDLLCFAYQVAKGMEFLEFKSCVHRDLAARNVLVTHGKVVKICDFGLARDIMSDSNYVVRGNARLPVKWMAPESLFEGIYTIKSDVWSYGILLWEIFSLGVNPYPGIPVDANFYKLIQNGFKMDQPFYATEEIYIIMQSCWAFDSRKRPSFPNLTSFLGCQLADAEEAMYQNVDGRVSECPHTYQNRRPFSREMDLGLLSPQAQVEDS

[11] = tested on: Rattus norvegicus; assay: Antiinflammatory effect in Freund's complete adjuvant-induced Lewis rat arthritis model assessed as prevention of bone erosion at 10 mg/kg, po twice daily administered on day 8 post adjuvant challenge measured on day 21 post adjuvant challenge relative to control; type: functional, organism-based; design: dose 10 mg/kg
[12] = Metabolic stability in rat liver microsomes after 10 mins; type: ADME, Microsome; settings: read-out: Stability
[13] = tested on: Rattus norvegicus; assay: Reversal of ankle swelling in streptococcal cell wall-induced Lewis rat chronic arthritis model at 3 mg/kg, po twice daily administered on day 19 post streptococcal cell wall challenge; type: functional, organism-based; design: dose 3 mg/kg
[14] = Volume of distribution at steady state in monkey at 2 mg/kg, iv; type: ADME, organism-based, Macaca mulatta; design: dose 2 mg/kg, route intravenous; settings: rhesus monkey, in vivo, read-out: Vdss
[15] = target: High affinity nerve growth factor receptor (Homo sapiens, UniProt P04629); assay: Inhibition of TrkA by fluorescence polarization competition immunoassay
High affinity nerve growth factor receptor, sequence (P04629 whole entry): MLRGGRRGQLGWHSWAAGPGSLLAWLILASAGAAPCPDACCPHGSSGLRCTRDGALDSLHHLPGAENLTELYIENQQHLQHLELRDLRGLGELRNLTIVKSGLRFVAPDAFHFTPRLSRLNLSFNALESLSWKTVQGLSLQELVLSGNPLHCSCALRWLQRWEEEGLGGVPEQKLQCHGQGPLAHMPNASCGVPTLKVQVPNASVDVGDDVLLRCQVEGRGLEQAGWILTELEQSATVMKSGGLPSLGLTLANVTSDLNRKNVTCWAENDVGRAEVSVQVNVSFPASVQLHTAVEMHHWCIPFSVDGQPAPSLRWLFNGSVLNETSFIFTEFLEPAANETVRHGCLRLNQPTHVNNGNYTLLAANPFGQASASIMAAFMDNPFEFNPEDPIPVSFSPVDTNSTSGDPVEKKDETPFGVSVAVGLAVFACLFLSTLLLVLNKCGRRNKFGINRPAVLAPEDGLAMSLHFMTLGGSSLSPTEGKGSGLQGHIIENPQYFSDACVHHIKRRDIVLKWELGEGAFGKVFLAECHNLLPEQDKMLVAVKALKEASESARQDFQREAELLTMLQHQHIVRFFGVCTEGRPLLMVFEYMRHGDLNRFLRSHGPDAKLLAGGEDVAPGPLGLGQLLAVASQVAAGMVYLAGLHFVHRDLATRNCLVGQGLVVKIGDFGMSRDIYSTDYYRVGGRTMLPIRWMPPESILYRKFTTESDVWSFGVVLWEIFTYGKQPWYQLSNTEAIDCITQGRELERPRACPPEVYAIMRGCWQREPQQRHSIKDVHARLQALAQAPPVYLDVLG

[16] = target: Insulin receptor (Homo sapiens, UniProt P06213); assay: Inhibition of IRKbeta by fluorescence polarization competition immunoassay
Insulin receptor, sequence (P06213 28-758 limits assumed): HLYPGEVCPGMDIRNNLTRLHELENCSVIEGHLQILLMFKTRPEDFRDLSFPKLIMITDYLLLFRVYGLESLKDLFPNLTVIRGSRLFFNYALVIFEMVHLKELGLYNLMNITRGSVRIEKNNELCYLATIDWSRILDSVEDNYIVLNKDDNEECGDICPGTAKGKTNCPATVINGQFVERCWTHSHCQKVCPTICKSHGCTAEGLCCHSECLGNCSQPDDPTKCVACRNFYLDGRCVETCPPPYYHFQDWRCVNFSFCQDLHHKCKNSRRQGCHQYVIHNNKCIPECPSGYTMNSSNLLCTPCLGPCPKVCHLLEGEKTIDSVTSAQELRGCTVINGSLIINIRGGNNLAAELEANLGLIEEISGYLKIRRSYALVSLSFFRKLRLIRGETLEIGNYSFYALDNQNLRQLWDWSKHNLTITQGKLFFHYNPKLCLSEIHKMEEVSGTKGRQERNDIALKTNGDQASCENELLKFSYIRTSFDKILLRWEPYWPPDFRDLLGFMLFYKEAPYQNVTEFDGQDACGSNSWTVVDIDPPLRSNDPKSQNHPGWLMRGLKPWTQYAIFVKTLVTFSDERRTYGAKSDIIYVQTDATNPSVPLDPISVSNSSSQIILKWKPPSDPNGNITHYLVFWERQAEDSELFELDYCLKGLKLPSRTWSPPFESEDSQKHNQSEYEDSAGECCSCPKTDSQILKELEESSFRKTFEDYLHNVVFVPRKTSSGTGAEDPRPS
Insulin receptor, sequence (P06213 763-1382 limits assumed): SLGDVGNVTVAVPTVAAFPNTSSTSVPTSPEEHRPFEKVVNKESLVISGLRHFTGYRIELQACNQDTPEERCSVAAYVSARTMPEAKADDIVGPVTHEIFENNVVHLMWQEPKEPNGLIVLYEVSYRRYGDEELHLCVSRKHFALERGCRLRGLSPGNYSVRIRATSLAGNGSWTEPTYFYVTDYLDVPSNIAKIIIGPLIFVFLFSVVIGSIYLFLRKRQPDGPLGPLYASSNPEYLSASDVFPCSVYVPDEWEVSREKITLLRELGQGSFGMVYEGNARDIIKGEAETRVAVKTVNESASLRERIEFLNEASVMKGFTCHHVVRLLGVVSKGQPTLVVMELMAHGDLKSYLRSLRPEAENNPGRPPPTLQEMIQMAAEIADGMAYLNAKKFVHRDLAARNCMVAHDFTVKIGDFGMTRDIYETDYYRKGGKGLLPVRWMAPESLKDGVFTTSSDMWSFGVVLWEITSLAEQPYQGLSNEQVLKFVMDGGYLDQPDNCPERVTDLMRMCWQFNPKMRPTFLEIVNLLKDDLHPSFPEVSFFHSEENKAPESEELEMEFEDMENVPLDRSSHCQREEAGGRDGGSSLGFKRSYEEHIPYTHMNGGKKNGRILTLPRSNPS

[17] = Oral bioavailability in dog at 10 mg/kg; type: ADME, organism-based, Canis lupus familiaris; settings: in vivo
[18] = tested on: Rattus norvegicus; assay: Antiinflammatory effect in Freund's complete adjuvant-induced Lewis rat arthritis model assessed as prevention of bone lesion development at tibial tarsal joint at 1 mg/kg, po twice daily administered on day 8 post adjuvant challenge measured on day 21 post adjuvant challenge by microradiography; type: functional, organism-based; design: dose 1 mg/kg
[19] = tested on: Rattus norvegicus; assay: Antiinflammatory effect in Freund's complete adjuvant-induced Lewis rat arthritis model assessed as prevention of osteoclastogenesis at 3 mg/kg, po twice daily administered on day 8 post adjuvant challenge measured on day 21 post adjuvant challenge relative to control; type: functional, organism-based; design: dose 3 mg/kg
[20] = Volume of distribution at steady state in Sprague-Dawley rat at 2 mg/kg, iv; type: ADME, organism-based; design: dose 2 mg/kg, route intravenous; settings: in vivo, read-out: Vdss
[21] = Plasma concentration in Freund's complete adjuvant-induced Lewis rat arthritis model at 3 mg/kg, po twice daily administered on day 8 post adjuvant challenge measured 7 days after last dose; type: ADME, organism-based; design: dose 3 mg/kg, route oral
[22] = Half life in dog at 2 mg/kg, iv; type: ADME, organism-based, Canis lupus familiaris; design: dose 2 mg/kg, route intravenous; settings: in vivo
[23] = Plasma concentration CSF1-induced B6C3F1 mouse at 3 mg/kg, po after 6 hrs; type: ADME, organism-based; design: dose 3 mg/kg, route oral
[24] = tested on: Rattus norvegicus; assay: Antiinflammatory effect in Freund's complete adjuvant-induced Lewis rat arthritis model assessed as prevention of osteoclastogenesis at 1 mg/kg, po twice daily administered on day 8 post adjuvant challenge measured on day 21 post adjuvant challenge relative to control; type: functional, organism-based; design: dose 1 mg/kg
[25] = tested on: Mus musculus; assay: Reduction of CSF1-induced increase in c-fos mRNA expression in B6C3F1 mouse at 3 mg/kg, po administered 6 hrs before CSF1 challenge measured 15 mins post CSF1 challenge relative to control; type: functional; design: scale not given: the % may be the effect or the level left
[26] = Cmax in mouse at 10 mg/kg, po; type: ADME, organism-based; design: dose 10 mg/kg, route oral; settings: in vivo
[27] = target: Proto-oncogene tyrosine-protein kinase Src (Homo sapiens, UniProt P12931); assay: Inhibition of Src by fluorescence polarization competition immunoassay
Proto-oncogene tyrosine-protein kinase Src, sequence (P12931 2-536 limits assumed): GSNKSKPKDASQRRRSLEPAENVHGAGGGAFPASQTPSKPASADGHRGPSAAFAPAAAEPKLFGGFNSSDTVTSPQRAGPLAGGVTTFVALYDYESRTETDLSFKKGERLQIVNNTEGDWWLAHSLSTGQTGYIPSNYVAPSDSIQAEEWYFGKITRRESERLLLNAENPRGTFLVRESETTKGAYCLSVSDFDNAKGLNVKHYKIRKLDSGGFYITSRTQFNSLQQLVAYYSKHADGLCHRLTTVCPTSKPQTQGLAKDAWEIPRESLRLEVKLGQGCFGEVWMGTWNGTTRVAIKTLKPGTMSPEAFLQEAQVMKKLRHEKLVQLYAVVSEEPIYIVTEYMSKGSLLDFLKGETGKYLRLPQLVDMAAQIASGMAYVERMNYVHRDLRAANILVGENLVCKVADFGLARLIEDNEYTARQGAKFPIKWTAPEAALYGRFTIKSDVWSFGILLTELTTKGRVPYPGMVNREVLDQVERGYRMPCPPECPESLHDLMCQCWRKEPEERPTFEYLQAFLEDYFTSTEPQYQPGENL

[28] = Half life in Sprague-Dawley rat at 2 mg/kg, iv; type: ADME, organism-based; design: dose 2 mg/kg, route intravenous; settings: in vivo
[29] = Clearance in monkey at 2 mg/kg, iv; type: ADME, organism-based, Macaca mulatta; design: dose 2 mg/kg, route intravenous; settings: rhesus monkey, in vivo
[30] = Cmax in monkey at 10 mg/kg, po; type: ADME, organism-based, Macaca mulatta; design: dose 10 mg/kg, route oral; settings: rhesus monkey, in vivo
[31] = Clearance in dog at 2 mg/kg, iv; type: ADME, organism-based, Canis lupus familiaris; design: dose 2 mg/kg, route intravenous; settings: in vivo
[32] = Volume of distribution at steady state in dog at 2 mg/kg, iv; type: ADME, organism-based, Canis lupus familiaris; design: dose 2 mg/kg, route intravenous; settings: in vivo, read-out: Vdss
[33] = Metabolic stability in monkey liver microsomes after 10 mins; type: ADME, Macaca mulatta, Microsome; settings: rhesus monkey, read-out: Stability
[34] = Half life in mouse at 2 mg/kg, iv; type: ADME, organism-based; design: dose 2 mg/kg, route intravenous; settings: in vivo

bioavailability [1]: 51% | Cmax [3]: 1600 nM | remaining at 10 min [4]: 51% | Cmax [7]: 120 nM | bioavailability [8]: 16.7% | concentration at 168 h [9]: 55 nM | IC50 [10]: 6 nM | remaining at 10 min [12]: 96% | Vd [14]: 22.6 L/kg | IC50 [15]: 500 nM | IC50 [16]: 3700 nM | bioavailability [17]: 33% | Vd [20]: 4.3 L/kg | concentration at 168 h [21]: 189 nM | half-life [22]: 9.3 h | concentration at 6 h [23]: 290 nM | Cmax [26]: 1600 nM | IC50 [27]: 1400 nM | half-life [28]: 4.6 h | clearance [29]: 48.7 mL/min/kg | Cmax [30]: 60 nM | clearance [31]: 30 mL/min/kg | Vd [32]: 20.3 L/kg | remaining at 10 min [33]: 14% | half-life [34]: 1.8 h
Structure (SMILES): CONC(=O)c1cn(-c2ccc3c(c2)CCC3)c2nc(Nc3ccc(C4CCN(C)CC4)cc3)ncc2c1=O
inhibition in vivo at 10 mg/kg [2]: 17% | Activity [5]: Active | Activity [6]: Active | Activity [11]: Active | Activity [13]: Active | Activity [18]: Active | Activity [19]: Active | Activity [24]: Active | Activity [25]: 90%
